Data set [1] concerns mice. To be noted: for increase in LD10 enabled by ICRF-187: LD10 of the topoisomerase II poison with ICRF-187 versus alone, mice. From the text:
Calculation of LD10 and LD50 using the maximum likelihood estimation. The 6 experiments in Table 2 are included in the computations.

Data set [2] has as its system Ehrlich's ascites tumour cells. The data set is described as follows: Therapy study, mice inoculated i.p. with Ehrlich's ascites tumour cells (increase in life span). Format: in vivo. As to the method: (§1) In therapy studies, mice were inoculated i.p. with either 10^5 L1210 leukemia cells or 15x10^6 Ehrlich's ascites tumour cells on day 0 and treated with drugs i.p. on day 4 after inoculation. The brain tumour model consisted of 10^4 L1210 cells or 15x10^4 Ehrlich's ascites tumour cells in a volume of 30 µl of isotonic sodium chloride inoculated on day 0 into the temporal region followed by treatment i.p. on day 2, 3 or 4 after inoculation.
(§2) 1×10^5 L1210 tumour cells or 15×10^6 Ehrlich's ascites tumour cells were inoculated i.p. on day 0 and mice were treated i.p. on day 4. The Mann Whitney test was used for statistical evaluation.

The next data set deals with L1210 leukemia cells. The data set is described as follows: Therapy study, mice inoculated i.p. with L1210 leukemia cells (increase in life span). Format: in vivo. As to the method:
as §1, §2

For data set [3], the system named is mice. The following applies: mouse. As to the method: First generation hybrids of female random bred Swiss mice and male inbred DBA (NDF1-hybrid) mice were used as previously described (5). The mice weighed between 19 and 21 g at the start of the experiments. […] Lethality was recorded and surviving mice were sacrificed after 60 days. Toxicity was evaluated by weight and leucocyte counts. For weight evaluations mice were treated with drugs, marked and weighed for eleven consecutive days. Blood for leucocyte counts was obtained from a tail vein and counted in a hemocytometer on days 3, 5 and 7 after treatment.

The test system of data set [4] is mice. The data set is described as follows: Lethality in healthy mice after drugs given once i.p., with or without ICRF-187 pretreatment (survivors/treated). Format: in vivo. To be noted: for survivors/treated: compiled data from two experiments. As to the method:
Toxicity was evaluated by weight and leucocyte counts.
The compiled data from two experiments showing that paclitaxel induced lethality cannot be protected by pretreamtment with ICRF-187. Groups of 11 mice were treated once i.p. with or without pretreatment with ICRF-187.

Where [5] appears, read: NDF1 hybrid (female Swiss x male DBA), mouse, in vivo, ip, 60 days.

Each structure is given as a SMILES string. Values joined by “and” are separate entries in the source; they are usually repeats but may differ in a detail not shown here. Equal values may be shown once. Read-outs that look alike come from different tables or passages of the source.

As for `COc1cc([C@@H]2c3cc4c(cc3[C@@H](O[C@@H]3O[C@@H]5CO[C@@H](C)O[C@H]5[C@H](O)[C@H]3O)[C@H]3COC(=O)[C@H]23)OCO4)cc(OC)c1O` [etoposide], in the data set with mice [1], the “increase in LD10 enabled by ICRF-187” value stood at 3.6 fold. Moreover, the LD10 in the data set on mice [1] (dose of etoposide killing 10% of the mice, maximum likelihood estimation, 6 experiments of Table 2, combination with 125 mg/kg ICRF-187, 125 mg/kg) is 34 mg/kg and 33 mg/kg; in the data set on mice [1] (dose of etoposide killing 10% of the mice, maximum likelihood estimation, 6 experiments of Table 2, combination with 125 mg/kg ICRF-187, listed as VP-16, 125 mg/kg), 34.0 mg/kg. The “log LD10” value with mice [1] (maximum likelihood estimation on the 6 experiments of Table 2, combination with 125 mg/kg ICRF-187) was 1.531. Moreover, the “ILS(%)” value is 53% and 40% and 35% in data set [2] (Etoposide 33 mg/kg i.p. on day 4, 15×10^6 Ehrlich's ascites tumour cells i.p. on day 0); 113% and 100% and 88% in the data set on L1210 leukemia cells (Etoposide 33 mg/kg i.p. on day 4, 1×10^5 L1210 tumour cells i.p. on day 0). The “increased life span, ILS(%) (etoposide alone set to 100)” value in data set [2] (Table 5A, Etoposide 33 mg/kg, Ehrlich's tumour cells i.p.) worked out at 100%; in the data set on L1210 leukemia cells (Table 5B, Etoposide 33 mg/kg, L 1210 tumour cells i.p.), 100%.

In the case of `C[C@@H](CN1CC(=O)NC(=O)C1)N1CC(=O)NC(=O)C1` [ICRF-187, (+)-1,2-bis(3,5-dioxopiperazinyl-1-yl)propane], the survivors/treated with mice [3] (NDF1 hybrid (female Swiss x male DBA), in vivo, 100 mg/kg, 60 days) is 11/11. The “ICRF-187 mediated protection in vivo” value in the data set with mice [3] is recorded as “not obtained”. In addition, the LD10 with mice [1] (setting [5]) was determined as 500 mg/kg. This compound also showed an LD90 in the data set with mice [1] (setting [5]) of 1500 mg/kg. Besides, the antitumour effect result is on record as “no antitumour effect” in data set [2] (ICRF-187 alone, mice inoculated i.p. with Ehrlich's ascites tumour) and “no antitumour effect” with L1210 leukemia cells (ICRF-187 alone, mice inoculated i.p. with L1210 tumour cells).

On to `COc1cc([C@@H]2c3cc4c(cc3[C@@H](O[C@@H]3O[C@@H]5CO[C@@H](c6cccs6)O[C@H]5[C@H](O)[C@H]3O)[C@H]3COC(=O)[C@H]23)OCO4)cc(OC)c1O` [teniposide], for which the “increase in LD10 enabled by ICRF-187” value with mice [1] is recorded as 3.4 fold.

`CC(=O)O[C@H]1C(=O)[C@@]2(C)[C@H]([C@H](OC(=O)c3ccccc3)[C@]3(O)C[C@H](OC(=O)[C@H](O)[C@@H](NC(=O)c4ccccc4)c4ccccc4)C(C)=C1C3(C)C)[C@]1(OC(C)=O)CO[C@@H]1C[C@@H]2O` [Paclitaxel, paclitaxel]: the “Survivors/ treated, %” value in the data set with mice [4] (Paclitaxel 30 mg/kg alone) came to 100%; in the data set on mice [4] (Paclitaxel 40 mg/kg alone), 55%; in the data set on mice [4] (Paclitaxel 50 mg/kg alone), 0%. Moreover, the survivors/treated in the data set on mice [4] (Paclitaxel 30 mg/kg alone) is 22/22; with mice [4] (Paclitaxel 40 mg/kg alone), 12/22; in the data set with mice [4] (Paclitaxel 50 mg/kg alone), 0/22.

The values are drawn from patent EP0874630B1, “TOP[…] POISON AND BIS-DIOXY[…] COMBINATION THERAPY” (priority 1996, dated 1997).
